One compound from PMC11968506, “Toxicokinetics and analytical toxicology of the phenmetrazine-derived new psychoactive substance 3,4-methylenedioxyphenmetrazine studied by means of in vitro systems” (Archives of Toxicology, 2025) can be followed below.

Each structure is given as a SMILES string.

In one data set the target is CYP2C9 (Homo sapiens, UniProt P11712). Nature of the data set: CYP inhibition cocktail assay in pHLM, CYP2C9 (diclofenac). The settings on record: inhibitor 20 µM. As for the experimental part: (§1) A modified dual-cocktail based method (Dinger et al. [2014b]) was used. Substrate cocktail A consisted of 8.9 µM dextromethorphan (CYP2D6), 86 µM testosterone (CYP3A4), 3.5 µM diclofenac (CYP2C9), and 12 µM phenacetin (CYP1A2). Substrate cocktail B included 30 µM bupropion (CYP2B6), 2 µM amodiaquine (CYP2C8) and 21 µM omeprazole (CYP2C19). Substrate concentrations were near their respective Michaelis–Menten constant (Km) values (Dinger et al. [2014a]) and all concentrations are final. Enzyme inhibition was investigated using a positive control, a test group, a control group, an interference group, and a negative control. In the test group, specific inhibitors were replaced by MDPM (20 µM). Instead of inhibitors, phosphate buffer was used in the control group. Enzymes were replaced with phosphate buffer in the negative control group. The interference group was incubated like the control group, but the reaction was stopped with 20 µM MDPM in acetonitrile, also containing 2.5 µM trimipramine-d3. All groups were incubated with a NADPH-regenerating system, consisting of 5 mM isocitrate, 2 U/mL isocitrate dehydrogenase, 5 mM Mg^2+, and 1.2 mM NADP^+. Further, substrate cocktail A or B, 90 mM phosphate buffer (pH 7.4), and 200 U/mL superoxide dismutase were added to each group. […] All groups were preincubated for 10 min at 37 °C. Then, pHLM (0.4 mg microsomal protein/mL) was added to each group except the negative control. Incubations were done for 15 min at 37 °C. Therefore, 50 µL of acetonitrile (− 20 °C) containing 2.5 µM trimipramine-d3 as internal standard was added. Incubations were done in triplicates and organic solvent in the incubation mixture was below 1% (Chauret et al. [1998]). Afterwards the samples were vortexed and centrifuged for 2 min at 18,407×g. 70 µL of the supernatant were transferred to autosampler vials and 10 µL were injected onto the LC-HRMS/MS system. Enzyme inhibition was evaluated by metabolite formation. […] The following settings were used: unpaired; one-tailed; significance level, 0.05; confidence intervals, 99%.

The target in another data set is T1, CYP2B6 (Homo sapiens, UniProt P20813).
T1 sequence (P20813 1-491): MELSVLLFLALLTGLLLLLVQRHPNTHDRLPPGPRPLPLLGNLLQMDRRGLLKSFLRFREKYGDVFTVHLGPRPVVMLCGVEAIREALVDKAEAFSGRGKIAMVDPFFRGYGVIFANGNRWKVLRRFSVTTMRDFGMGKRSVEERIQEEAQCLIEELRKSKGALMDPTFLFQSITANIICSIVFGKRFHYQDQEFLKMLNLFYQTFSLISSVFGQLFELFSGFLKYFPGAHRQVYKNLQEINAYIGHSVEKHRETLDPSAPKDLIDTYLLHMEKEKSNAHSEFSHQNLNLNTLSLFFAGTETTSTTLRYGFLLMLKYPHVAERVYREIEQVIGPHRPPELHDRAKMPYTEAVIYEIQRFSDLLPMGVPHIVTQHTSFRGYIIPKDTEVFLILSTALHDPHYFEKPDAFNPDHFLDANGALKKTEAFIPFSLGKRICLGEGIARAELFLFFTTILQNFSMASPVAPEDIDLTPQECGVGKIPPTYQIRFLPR
Put plainly: CYP inhibition cocktail assay in pHLM, CYP2B6 (bupropion). The settings on record: inhibitor 20 µM. How it is done: as §1

The next data set addresses CYP3A4 (Homo sapiens, UniProt P08684). Put plainly: CYP inhibition cocktail assay in pHLM, CYP3A4 (testosterone). As for the experimental part: A modified dual-cocktail based method (Dinger et al. [2014b]) was used. Substrate cocktail A consisted of 8.9 µM dextromethorphan (CYP2D6), 86 µM testosterone (CYP3A4), 3.5 µM diclofenac (CYP2C9), and 12 µM phenacetin (CYP1A2). Substrate cocktail B included 30 µM bupropion (CYP2B6), 2 µM amodiaquine (CYP2C8) and 21 µM omeprazole (CYP2C19). Substrate concentrations were near their respective Michaelis–Menten constant (Km) values (Dinger et al. [2014a]) and all concentrations are final. Enzyme inhibition was investigated using a positive control, a test group, a control group, an interference group, and a negative control. In the test group, specific inhibitors were replaced by MDPM (20 µM). Instead of inhibitors, phosphate buffer was used in the control group. Enzymes were replaced with phosphate buffer in the negative control group. The interference group was incubated like the control group, but the reaction was stopped with 20 µM MDPM in acetonitrile, also containing 2.5 µM trimipramine-d3. All groups were incubated with a NADPH-regenerating system, consisting of 5 mM isocitrate, 2 U/mL isocitrate dehydrogenase, 5 mM Mg^2+, and 1.2 mM NADP^+. Further, substrate cocktail A or B, 90 mM phosphate buffer (pH 7.4), and 200 U/mL superoxide dismutase were added to each group. […] All groups were preincubated for 10 min at 37 °C. […] Enzyme inhibition was evaluated by metabolite formation. […]

A short description of data set [1]: In vitro plasma protein binding (ultrafiltration, Centrifree). Type of data set: in vitro ADME. The settings on record: 30 min at 37 °C, triplicate. How it is done: PPB of MDPM was investigated based on published procedures with minor adjustments (Gampfer et al. [2020]), (Mardal et al. [2016]). A volume of 450 µL fresh human blood plasma was spiked with 50 µL of a 5 µM methanolic solution of MDPM. The mixture was incubated for 30 min at 37 °C. Plasma aliquots of 100 µL and 400 µL were transferred to a new reaction tube (global approach, GA) and onto two-chambered Centrifree devices from Merck (Darmstadt, Germany), respectively. The Centrifree devices were centrifuged for 40 min and 1600×g to obtain 100 µL of ultrafiltrate (UF). UF and GA were precipitated using 50 µL acetonitrile (− 20 °C). The mixture was vortexed, cooled for 30 min at − 20 °C, and centrifuged for 3 min at 18,407×g. […] Experiments were done in triplicate. Fraction unbound (fu) and PPB was determined by comparing the area ratios of MDPM and trimipramine-d3 in the UF and GA using the following equations:1 fu=peak area ratioMDPMUF/ISUF/peak area ratioMDPMGA/ISGA 2 PPB[%]=1-fu∗100

The next data set addresses CYP2D6 (Homo sapiens, UniProt P10635). Nature of the data set: Monooxygenase mapping (ten human cDNA-expressed CYP isoforms and FMO3). It counts as in vitro ADME. The arrangement: Then, pHLM (0.4 mg microsomal protein/mL) was added to each group except the negative control; tissue Discovery Life Sciences; host or cells: pooled human liver microsomes, 25 donors. The note with it: MDPM 25 µM, CYP 50 pmol/mL each or FMO3 0.25 mg protein/mL, 90 and 270 min. How it is done: As described elsewhere (Wagmann et al. [2016]) and with minor modifications, MDPM (25 µM) was incubated with 2.5 mM isocitrate, 0.8 U/mL isocitrate dehydrogenase, 100 U/mL superoxide dismutase, 0.6 mM NADP^+, 2.5 mM Mg^2+ and CYP1A2, CYP2A6, CYP2B6, CYP2C8, CYP2C9, CYP2C19, CYP2D6, CYP2E1, CYP3A4, CYP3A5 (50 pmol/mL each), or FMO3 (0.25 mg protein/mL) for 90 and 270 min at 37 °C. For incubations with CYP2A6 or CYP2C9, phosphate buffer was replaced with 90 mM Tris buffer, according to the manufacturer’s guideline. Thirty µL aliquots were taken at both timepoints. The reaction was stopped using 20 µL acetonitrile (− 20 °C) with 2.5 µM trimipramine-d3 as an internal standard. All incubations were done in duplicates and concentrations are final. […] Negative control samples without enzymes and blank samples without substrate were incubated to identify not metabolically formed compounds and to confirm the absence of interfering compounds.

CYP3A4, sequence (P08684 whole entry): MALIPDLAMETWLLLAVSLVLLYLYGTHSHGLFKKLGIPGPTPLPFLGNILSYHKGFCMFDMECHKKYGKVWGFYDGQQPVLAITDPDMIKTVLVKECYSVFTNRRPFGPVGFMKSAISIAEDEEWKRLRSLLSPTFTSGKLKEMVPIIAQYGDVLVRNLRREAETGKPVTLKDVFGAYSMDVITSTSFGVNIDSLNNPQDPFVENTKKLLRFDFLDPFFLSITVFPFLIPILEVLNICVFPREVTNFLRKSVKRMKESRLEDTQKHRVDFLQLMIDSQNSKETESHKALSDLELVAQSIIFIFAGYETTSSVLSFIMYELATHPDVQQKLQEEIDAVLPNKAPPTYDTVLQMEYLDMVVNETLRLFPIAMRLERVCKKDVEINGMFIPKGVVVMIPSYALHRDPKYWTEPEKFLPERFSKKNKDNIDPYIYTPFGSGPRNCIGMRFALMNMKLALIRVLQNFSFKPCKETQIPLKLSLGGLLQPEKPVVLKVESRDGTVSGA
CYP2C9, sequence (P11712 whole entry): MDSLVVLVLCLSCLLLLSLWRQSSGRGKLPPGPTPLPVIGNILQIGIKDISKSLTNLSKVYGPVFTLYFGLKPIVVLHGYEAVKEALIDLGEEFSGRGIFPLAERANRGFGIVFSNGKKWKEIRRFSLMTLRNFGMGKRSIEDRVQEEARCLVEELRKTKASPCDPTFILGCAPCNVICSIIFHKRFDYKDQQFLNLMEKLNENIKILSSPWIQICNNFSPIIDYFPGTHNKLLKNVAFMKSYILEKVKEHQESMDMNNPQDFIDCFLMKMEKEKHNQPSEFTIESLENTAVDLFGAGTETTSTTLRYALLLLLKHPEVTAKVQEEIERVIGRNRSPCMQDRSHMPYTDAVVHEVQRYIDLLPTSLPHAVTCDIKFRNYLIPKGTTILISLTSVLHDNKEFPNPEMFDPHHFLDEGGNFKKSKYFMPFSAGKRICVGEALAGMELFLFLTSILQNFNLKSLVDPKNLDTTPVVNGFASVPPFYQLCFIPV
CYP2D6, sequence (P10635 whole entry, canonical isoform): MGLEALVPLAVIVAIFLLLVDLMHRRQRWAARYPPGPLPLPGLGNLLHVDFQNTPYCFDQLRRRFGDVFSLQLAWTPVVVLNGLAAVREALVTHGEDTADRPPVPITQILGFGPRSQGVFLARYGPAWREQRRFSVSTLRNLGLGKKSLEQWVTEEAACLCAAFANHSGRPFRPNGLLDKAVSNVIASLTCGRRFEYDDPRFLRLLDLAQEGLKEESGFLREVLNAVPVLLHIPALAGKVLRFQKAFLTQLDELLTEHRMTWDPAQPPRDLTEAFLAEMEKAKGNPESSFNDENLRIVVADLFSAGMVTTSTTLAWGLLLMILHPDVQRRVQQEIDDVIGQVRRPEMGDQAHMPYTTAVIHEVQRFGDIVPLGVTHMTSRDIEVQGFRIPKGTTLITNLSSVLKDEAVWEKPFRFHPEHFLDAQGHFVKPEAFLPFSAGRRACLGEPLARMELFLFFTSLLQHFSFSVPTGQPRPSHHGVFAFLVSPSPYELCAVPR

In the case of `CC1NCCOC1c1ccc2c(c1)OCO2` (stereo not drawn) [MDPM, 2-(1,3-benzodioxol-5-yl)-3-methylmorpholine], at CYP2C9 (diclofenac 3.5 µM, pHLM 0.4 mg/mL, 15 min, control without inhibitor = 100%), the CYP2C9 metabolite formation amounted to 115%. The “inhibition of CYP2C9” value on CYP2C9 (diclofenac, pHLM, t-test versus control) is “no significant inhibition”. Moreover, the CYP2B6 metabolite formation at CYP2B6 (bupropion 30 µM, pHLM 0.4 mg/mL, 15 min, control without inhibitor = 100%) was determined as 113%. Besides, the “inhibition of CYP2B6” value against CYP2B6 (bupropion, pHLM, t-test versus control) was “no significant inhibition”. Besides, the inhibition (as a rule, the percentage by which the read-out fell short of the control) at 15 min, 20 µM on CYP3A4 (human, pH 7.4) worked out at 28%. The CYP3A4 metabolite formation at CYP3A4 (inhibitor 20 µM, testosterone 86 µM, pHLM 0.4 mg/mL, 15 min, control without inhibitor = 100%) amounted to 72%. Besides, in data set [1] (fresh human blood plasma, read-out: plasma protein binding (PPB) (converted)), the fraction unbound at 30 min, 0.5 µM was 0.68. Moreover, the “plasma protein binding (PPB)” value in data set [1] (human plasma) is 32%. At CYP2D6, the “isozymes forming the demethylenyl metabolite (O-demethylenation of MDPM)” value is recorded as “exclusively by CYP2D6”.
